Test results reported in PubChem BioAssay AID328 (DTP/NCI, 2004).
Where “and” joins values, the source holds several entries; their conditions need not be identical. Equal entries are not always repeated. Toxic doses and inconclusive results are not listed. Residues, ends and D or L forms follow the SMILES beside them. *: point of attachment. Cbz = O=C(OCc1ccccc1)*

Test system: BDF1 mice, P388 leukemia ip, median survival T/C
Assay: NCI In Vivo Anticancer Drug Screen. Data for tumor model P388 Leukemia (intraperitoneal) in B6D2F1 (BDF1) mice
Details: endpoint: median survival time, higher = longer survival
In short: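 Survival ratio, drug arm over vehicle arm, in mice with a transplanted tumour.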

[1] = dose: 12.5 mg/kg/injection, schedule: Q01DX009 (ip), vehicle: saline with Tween-80
[2] = dose: 25.0 mg/kg/injection, schedule: Q01DX009 (ip), vehicle: saline with Tween-80
[3] = dose: 50.0 mg/kg/injection, schedule: Q01DX009 (ip), vehicle: saline with Tween-80
[4] = dose: 25.0 mg/kg/injection, schedule: Q01DX009 (ip), vehicle: saline
[5] = dose: 50.0 mg/kg/injection, schedule: Q01DX009 (ip), vehicle: saline
[6] = dose: 100.0 mg/kg/injection, schedule: Q01DX009 (ip), vehicle: saline
[7] = dose: 50.0 mg/kg/injection, schedule: Q04DX003 (ip), vehicle: Klucel (hydroxypropylcellulose) (HPC)
[8] = dose: 100.0 mg/kg/injection, schedule: Q04DX003 (ip), vehicle: Klucel (hydroxypropylcellulose) (HPC)
[9] = dose: 200.0 mg/kg/injection, schedule: Q04DX003 (ip), vehicle: Klucel (hydroxypropylcellulose) (HPC)
[10] = dose: 100.0 mg/kg/injection, schedule: Q01DX009 (ip), vehicle: saline with Tween-80
[11] = dose: 200.0 mg/kg/injection, schedule: Q01DX009 (ip), vehicle: saline with Tween-80
[12] = dose: 100.0 mg/kg/injection, schedule: Q04DX003 (ip), vehicle: saline with Tween-80
[13] = dose: 200.0 mg/kg/injection, schedule: Q04DX003 (ip), vehicle: saline with Tween-80
[14] = dose: 100.0 mg/kg/injection, schedule: Q04DX003 (ip), vehicle: saline
[15] = dose: 200.0 mg/kg/injection, schedule: Q01DX009 (ip), vehicle: saline
[16] = dose: 200.0 mg/kg/injection, schedule: Q04DX003 (ip), vehicle: saline
[17] = dose: 400.0 mg/kg/injection, schedule: Q04DX003 (ip), vehicle: saline
[18] = dose: 50.0 mg/kg/injection, schedule: Q01DX005 (ip), vehicle: saline
[19] = dose: 100.0 mg/kg/injection, schedule: Q01DX001 (ip), vehicle: Klucel (hydroxypropylcellulose) (HPC)
[20] = dose: 200.0 mg/kg/injection, schedule: Q01DX001 (ip), vehicle: Klucel (hydroxypropylcellulose) (HPC)
[21] = dose: 400.0 mg/kg/injection, schedule: Q04DX003 (ip), vehicle: saline with Tween-80

COCCn1c2nc(=O)n(-c3ccccc3)c(=O)c-2nc2ccccc21
T/C [1]: 89 % of control | T/C [2]: 114 % of control | T/C [3]: 91 % of control

O=C1NCN(c2ccccc2)C12CCNCC2
T/C [4]: 90 % of control | T/C [5]: 113 % of control | T/C [6]: 100 % of control

Cc1cc(C)nc(NS(=O)(=O)c2ccc(N=Nc3nc4[nH]c(N)nc(=S)c4[nH]3)cc2)n1
T/C (dose: 1.56 mg/kg/injection, schedule: Q01DX009 (ip), vehicle: Klucel (hydroxypropylcellulose) (HPC)): 113 % of control | T/C (dose: 3.13 mg/kg/injection, schedule: Q01DX009 (ip), vehicle: Klucel (hydroxypropylcellulose) (HPC)): 117 % of control | T/C (dose: 6.25 mg/kg/injection, schedule: Q01DX009 (ip), vehicle: Klucel (hydroxypropylcellulose) (HPC)): 112 % of control and 113 % of control | T/C [7]: 116 % of control | T/C [8]: 108 % of control | T/C [9]: 104 % of control

O=C(c1ccccc1)C(SC(C(=O)c1ccccc1)c1ccccc1)c1ccccc1 (stereo not given)
T/C [3]: 98 % of control | T/C [10]: 97 % of control | T/C [11]: 91 % of control

C=CCNC(=O)Cn1nnc(-c2ccccc2)n1
T/C [3]: 86 % of control | T/C [10]: 101 % of control | T/C [11]: 107 % of control

Nc1ccc(O)c2ncccc12
T/C (dose: 7.5 mg/kg/injection, schedule: Q01DX010 (ip), vehicle: saline): 115 % of control | T/C (dose: 15.0 mg/kg/injection, schedule: Q01DX010 (ip), vehicle: saline): 110 % of control

CCN(CC)c1ccc(NC(=O)NC(C)C)cc1
T/C (dose: 50.0 mg/kg/injection, schedule: Q04DX003 (ip), vehicle: saline with Tween-80): 90 % of control | T/C [12]: 90 % of control | T/C [13]: 86 % of control

COC(=O)C1(C)CCC(c2ccc(OC)cc2)C(CC(=O)O)C1=O (stereo not given)
T/C [6]: 95 % of control | T/C [14]: 100 % of control | T/C [15]: 104 % of control | T/C [16]: 119 % of control | T/C (dose: 400.0 mg/kg/injection, schedule: Q01DX009 (ip), vehicle: saline): 109 % of control | T/C [17]: 96 % of control

O=C(O)c1cc(Cl)c(C(=O)O)cc1Cl
T/C (dose: 75.0 mg/kg/injection, schedule: Q01DX009 (ip), vehicle: saline with Tween-80): 116 % of control | T/C (dose: 150.0 mg/kg/injection, schedule: Q01DX009 (ip), vehicle: saline with Tween-80): 104 % of control | T/C (dose: 300.0 mg/kg/injection, schedule: Q01DX009 (ip), vehicle: saline with Tween-80): 108 % of control

CCOc1ccc(S(=O)(=O)O)c2cccnc12
T/C [14]: 105 % of control | T/C [16]: 105 % of control | T/C [17]: 105 % of control

[O-]c1c(Cl)c(Cl)c(O[P+](c2ccccc2)(c2ccccc2)c2ccccc2)c(Cl)c1Cl
T/C (dose: 6.25 mg/kg/injection, schedule: Q01DX009 (ip), vehicle: saline): 116 % of control | T/C (dose: 12.5 mg/kg/injection, schedule: Q01DX009 (ip), vehicle: saline): 122 % of control

CCc1ccc(OS(=O)(=O)c2ccccc2[N+](=O)[O-])cc1
T/C (dose: 100.0 mg/kg/injection, schedule: Q04DX003 (ip), vehicle: saline sonified): 100 % of control | T/C (dose: 200.0 mg/kg/injection, schedule: Q04DX003 (ip), vehicle: saline sonified): 100 % of control | T/C (dose: 400.0 mg/kg/injection, schedule: Q04DX003 (ip), vehicle: saline sonified): 100 % of control

Cc1ccccc1C(Br)C1=CC(C)(C)c2ccccc2C1=O (stereo not given)
T/C (dose: 100.0 mg/kg/injection, schedule: Q01DX009 (ip), vehicle: Klucel (hydroxypropylcellulose) (HPC)): 95 % of control | T/C [8]: 100 % of control | T/C (dose: 200.0 mg/kg/injection, schedule: Q01DX009 (ip), vehicle: Klucel (hydroxypropylcellulose) (HPC)): 100 % of control | T/C [9]: 104 % of control | T/C (dose: 400.0 mg/kg/injection, schedule: Q01DX009 (ip), vehicle: Klucel (hydroxypropylcellulose) (HPC)): 95 % of control | T/C (dose: 400.0 mg/kg/injection, schedule: Q04DX003 (ip), vehicle: Klucel (hydroxypropylcellulose) (HPC)): 100 % of control

O=C(Nc1cc(C(F)(F)F)ccc1Cl)ON1CCCCC1
T/C [1]: 107 % of control | T/C [2]: 94 % of control | T/C [3]: 114 % of control and 124 % of control | T/C [10]: 100 % of control and 102 % of control | T/C [11]: 91 % of control

CC1(C)O[C@]2(C)CC[C@@H]1[C@@H](O)[C@@H]2N1CCCC1
T/C [18]: 95 % of control | T/C (dose: 100.0 mg/kg/injection, schedule: Q01DX005 (ip), vehicle: saline): 106 % of control | T/C (dose: 200.0 mg/kg/injection, schedule: Q01DX005 (ip), vehicle: saline): 106 % of control

CN(C)CCCNC(=O)c1ccc2c(c1O)C(=O)c1ccccc1C2=O
T/C [18]: 118 % of control

CCCCCCCCN1CCCNCC1
T/C [4]: 100 % of control

C=CC(COC(C)=O)N1CC1 (stereo not given)
T/C (dose: 4.0 mg/kg/injection, schedule: Q01DX009 (ip), vehicle: saline): 104 % of control | T/C (dose: 6.0 mg/kg/injection, schedule: Q01DX009 (ip), vehicle: saline): 115 % of control | T/C (dose: 8.0 mg/kg/injection, schedule: Q01DX009 (ip), vehicle: saline): 112 % of control | T/C (dose: 12.0 mg/kg/injection, schedule: Q04DX003 (ip), vehicle: saline): 110 % of control | T/C (dose: 17.0 mg/kg/injection, schedule: Q01DX009 (ip), vehicle: saline): 116 % of control | T/C [4]: 150 % of control and 165 % of control | T/C (dose: 25.0 mg/kg/injection, schedule: Q04DX003 (ip), vehicle: saline): 120 % of control | T/C (dose: 37.0 mg/kg/injection, schedule: Q01DX009 (ip), vehicle: saline): 180 % of control

Cc1ccc(C)c(Nc2cc(=O)[nH]c(=O)[nH]2)c1
T/C [19]: 98 % of control | T/C [20]: 103 % of control

O=C1COc2ccccc2N1
T/C [19]: 113 % of control | T/C [20]: 100 % of control

CC(C)C(NC(=O)C1CCCN1C(=O)OCc1ccccc1)C(=O)O (stereo not drawn) (Cbz-Pro-Val-OH; configuration not given here)
T/C [12]: 104 % of control | T/C [13]: 100 % of control | T/C [21]: 100 % of control

CCOCCO
T/C (dose: 5.0 mg/kg/injection, schedule: Q01DX009 (ip), vehicle: saline): 103 % of control | T/C (dose: 5.0 mg/kg/injection, schedule: Q04DX003 (ip), vehicle: saline): 92 % of control | T/C (dose: 10.0 mg/kg/injection, schedule: Q01DX009 (ip), vehicle: saline): 88 % of control | T/C (dose: 10.0 mg/kg/injection, schedule: Q04DX003 (ip), vehicle: saline): 92 % of control | T/C (dose: 20.0 mg/kg/injection, schedule: Q04DX003 (ip), vehicle: saline): 88 % of control

CC(=O)Nc1ccc([N+](=O)[O-])c(NC(C)=O)n1
T/C [7]: 110 % of control | T/C [8]: 105 % of control | T/C [9]: 100 % of control

CC1(C)CC(=O)NN1C(=O)c1ccccc1
T/C [12]: 100 % of control | T/C [13]: 105 % of control | T/C [21]: 95 % of control

CCN(CC)CCNc1ccc(N=Nc2cnc3ccccc3c2)c2ccccc12
T/C (dose: 75.0 mg/kg/injection, schedule: Q01DX009 (ip), vehicle: Klucel (hydroxypropylcellulose) (HPC)): 95 % of control | T/C (dose: 115.0 mg/kg/injection, schedule: Q01DX009 (ip), vehicle: Klucel (hydroxypropylcellulose) (HPC)): 100 % of control

Cc1ccn(C)c(=O)c1
T/C [4]: 86 % of control | T/C [5]: 86 % of control | T/C [6]: 86 % of control and 100 % of control | T/C [15]: 105 % of control

COC1CCC(C)(C=O)C(C#N)(C#N)C1(C#N)C#N (stereo not given)
T/C (dose: 12.5 mg/kg/injection, schedule: Q01DX001 (ip), vehicle: saline with Tween-80): 98 % of control | T/C (dose: 25.0 mg/kg/injection, schedule: Q01DX001 (ip), vehicle: saline with Tween-80): 114 % of control | T/C (dose: 50.0 mg/kg/injection, schedule: Q01DX001 (ip), vehicle: saline with Tween-80): 109 % of control

COC1=C(C2=C(OC)C(=O)c3cc4oc(C)cc(=O)c4c(O)c3C2=O)C(=O)c2c(cc3oc(C)cc(=O)c3c2O)C1=O
T/C (dose: 0.37 mg/kg/injection, schedule: Q01DX009 (ip), vehicle: saline): 99 % of control | T/C (dose: 0.75 mg/kg/injection, schedule: Q01DX009 (ip), vehicle: saline): 105 % of control | T/C (dose: 1.5 mg/kg/injection, schedule: Q01DX009 (ip), vehicle: saline): 111 % of control | T/C (dose: 3.0 mg/kg/injection, schedule: Q01DX009 (ip), vehicle: saline): 101 % of control
